{"source": "patent US20150004144A1", "about": "“DIFFERENTIATION INTO BROWN ADIPOCYTES” (THE GENERAL HOSPITAL CORPORATION, priority 2011, published 2015)", "key": {"pAKT(S473)": {"test_system": "pAKT(S473)", "assay": "Western blot of insulin-induced AKT phosphorylation", "type": "cell-based, human", "conditions": "programmed white adipocytes, vs basal starved state", "procedure": "Finally, it was determined whether the programmed white adipocytes respond to insulin in a manner similar to mature primary white adipocytes. […] Insulin response was examined by assessing protein expression levels of AKT and phosphorylated AKT [pAKT(S473)] (FIG. 4D).\nWestern blot analysis. Western blot analysis was carried out using following antibodies: total AKT (Cell signaling #9272), phospho-Ser 473 AKT (Cell signaling #9271), Lamin A/C (Fisher/Millipore #3211)."}, "[1]": {"test_system": "BJ RiPS MPC derived adipocytes", "assay": "Glucose uptake assay ([3H]-2-deoxy-D-glucose)", "type": "cell-based, human", "conditions": "100 nM insulin 30 min; P=0.05 unprogrammed, P=0.0007 PPARG2-programmed cells", "procedure": "Glucose uptake assay. Adipocytes were serum-starved in 0.2% BSA DMEM overnight. Then, cells were incubated in KRH buffer (121 mM NaCl, 4.9 mM KCl, 1.2 mM MgSO4, 0.33 mM CaCl2, 12 mM HEPES, pH7.4) in the absence or presence of 100 nM insulin for 30 min at 37° C., followed by washing three times in KRH buffer. Glucose uptake was measured by incubating cells with 0.5 μCi/ml 2-deoxy-D-[3H] glucose (Perkin-Elmer) for 5 min at 37° C. After cold PBS washing three times, cells were lysed with 1% Triton X-100 solution and subjected to scintillation counting. Non-specific uptake was measured in the presence of 10 μM of cytochalasin B and subtracted from total uptake."}, "hPSC-derived adipocytes [2]": {"test_system": "hPSC-derived adipocytes", "assay": "Cellular OCR and ECAR (extracellular flux analyzer)", "type": "cell-based, human", "conditions": "all cell types; 5 μM antimycin A after oligomycin and CCCP", "protocol": "To further distinguish between white and brown adipocytes at a functional level, the characterization was extended to the mitochondrial function of our cells. […] Compounds were then injected that modulate mitochondrial function sequentially and the effect on OCR and ECAR was measured after the addition of each compound. Oligomycin was first administered to determine ATP turnover and the degree of proton leak. […] After the addition of the electron transport chain decoupler carbonyl cyanide m-chlorophenylhydrazone (CCCP), the maximal respiratory capacity was measured. […] Finally, antimycin was administered to inhibit the flux of electrons through complex III and prevent oxygen consumption by the cytochrome c oxidase in the mitochondria.\nMeasurement of cellular OCR and ECAR. Cells were plated in gelatin-coated XF24-well cell culture microplates (Seahorse Bioscience) and differentiated into adipocytes. Cells were incubated in prewarmed unbuffered DMEM medium (DMEM containing 2 mM GlutaMax, 1 mM sodium pyruvate, 1.85 g/l NaCl, and 25 mM glucose) for 1 hour. The oxygen consumption was measured by the XF24 Extracellular Flux Analyzer (Seahorse Biosciences). […] OCR and ECAR were determined by plotting the oxygen tension and acidification of the medium in the chamber as a function of time and normalized by protein concentration (pmol/min/mg and mpH/min/mg), respectively."}, "hPSC-derived adipocytes [3]": {"test_system": "hPSC-derived adipocytes", "assay": "Lipolysis assay (glycerol release)", "conditions": "PPARG2-programmed, differentiated ADSVCs and MPCs; ADSVCs P=0.01, MPCs P=0.002; n=3", "protocol": "Lipolysis assay. […] The culture media was collected for glycerol measurement using the Free Glycerol reagent (Sigma #F6428). Protein concentrations used to normalize glycerol content were measured using the Bradford protein assay (BioRad). Glycerol release was expressed in μg glycerol per mg total protein or the lowest value is set to 1."}}, "data": [{"molecule": "insulin: insulin (Sigma)", "values": [{"measurement": "pAKT(S473) after insulin", "setting": "pAKT(S473)", "value": "robustly upregulated pAKT(S473)"}, {"measurement": "glucose uptake after exposure to insulin", "setting": "[1]", "value": "significant increase in the glucose uptake"}]}, {"molecule": "antimycin", "values": [{"measurement": "OCR after antimycin", "setting": "hPSC-derived adipocytes [2]", "value": "dropped to post-oligomycin levels"}]}, {"molecule": "CC(C)NCC(O)c1ccc(O)c(O)c1", "note": "(stereo not shown) [isoproterenol]", "values": [{"measurement": "release of glycerol after isoproterenol", "setting": "hPSC-derived adipocytes [3]", "value": "breakdown of triglycerides and release of glycerol"}]}]}
